Data taken from publication PMC6271950, “LC-MS/MS Determination and Pharmacokinetic Study of Dehydrocorydaline in Rat Plasma after Oral Administration of Dehydrocorydaline and Corydalis yanhusuo Extract” (Molecules, 2014).
Blank lines part the entries; values can stand above or below the compound they belong to.

Columns and labels:
[1] = set-up: method as in PMID 16956957; details: 1 h after oral administration, in situ intestinal loop; cited from earlier work
P-glycoprotein = tested on: P-glycoprotein; set-up: method as in PMID 12530470, PMID 12434406; details: efflux in Caco-2 cells and the liver; cited from earlier work
cytochrome P450 3A4 = tested on: cytochrome P450 3A4; set-up: method as in PMID 16133554; details: cited from earlier work
[2] = Plasma pharmacokinetics of DHC after oral administration of pure DHC or EFY; format: in vivo, Sprague-Dawley rats; details: Sprague-Dawley, DHC in rat plasma, equivalent dose of 97.5 mg/kg DHC (EFY 483 mg/kg), n = 5, mean ± SD
Description: DHC is the most abundant quaternary protoberberine-type alkaloid in EFY and has clear cardiovascular pharmacological activity. A fully validated LC-ESI-MS/MS method was developed and was successfully applied to a pharmacokinetic study of DHC when given in the two different dosage forms (EFY and pure compound) via oral administration in rats. The doses of DHC and EFY were 97.5 mg/kg and 483 mg/kg (equivalent to 97.5 mg/kg DHC), respectively. The mean plasma concentration-time profiles of DHC after the two doses are illustrated in Figure 5 and the estimated pharmacokinetic parameters are presented in Table 5.
For pharmacokinetics study, the rats were divided into two groups (n = 5 per group). Doses of 97.5 mg/kg of DHC or 483 mg/kg of EFY (equivalent to 97.5 mg/kg DHC, 20.19% DHC in EFY) were all gavage administrated. Blood samples (500 μL) were withdrawn from the oculi chorioideae vein into heparinized tubes before dosing and subsequently at 15, 30 and 45 min and then at 1, 2, 4, 6, 8, 12 and 24 h following initial administration. After 1 h and 8 h, 2 mL of normal saline was injected into the caudal vein to compensate for blood loss. After centrifuging at 4000 rpm for 10 min, plasma samples were obtained and frozen at −20 °C until analysis.
A 200 μL aliquot of plasma was vortex mixed for 3 min with 200 μL of water and 50 μL of IS (800 ng/mL). After centrifugation at 9000 rpm for 10 min, all the supernatant was loaded onto an Oasis HLB cartridge (Waters, Milford, MA, USA), which was pre-conditioned with 1 mL of methanol followed by 1 mL of deionized water. The loaded-cartridge was sequentially washed with 1 mL of water and 1 mL of 20% methanol. The analytes were then eluted with 1 mL of methanol in water containing 2% formic acid. The collected eluate was evaporated to dryness at 40 °C under a gentle stream of nitrogen. The residue was reconstituted in 150 μL of 10% acetonitrile, and 30 μL of the resulting sample was injected into the LC-MS/MS system for assay. Bile and urine samples were all processed in a similar manner as the plasma samples.
An Agilent 1100 system (Palo Alto, CA, USA) equipped with a vacuum degasser, a quaternary pump, and an auto-sampler were used. Chromatographic separation was achieved on an Atlantis T3 column (100 mm × 2.1 mm, 5 μm; Waters, Milford, MA, USA), which was eluted with a mobile phase of acetonitrile and water (containing 0.8% formic acid and 10 mM ammonium acetate) (28:72, v/v). The mobile phase was delivered at a flow-rate of 0.25 mL/min and 40% of the eluate was introduced into an API 3000 triple-quadrupole mass spectrometer (Applied Biosystems MDS SCIEX, Concord, ON, Canada) equipped with a TurboIonSpray electrospray ionization (ESI) source. Detection was performed using positive-ion electrospray ionization in multiple reaction monitoring (MRM) modes. The transitions from molecular ion to dominant product ion m/z 366→351[M−CH3] and m/z 348→332[M−CH3−H] [26, 27, 28] were monitored for DHC and IS, respectively. The optimized working parameters for mass detection were as follows. The nebulizer, curtain, and collision-activated dissociation gases were set at 11, 7 and 11 (instrument units), respectively. The TurboIonSpray voltage and temperature were set at 4.5 kV and 400 °C, respectively. All data acquisition was performed using Analyst software (v1.4, AB MDS SCIEX).
Pharmacokinetic parameters were established from the plasma concentration–time data using non-compartmental analysis. The terminal elimination rate constant (Ke) was determined by linear regression of the terminal portion of the plasma concentration-time data. The elimination half-life (t1/2) was calculated using the expression: t1/2 = ln2/Ke(2) The area under the curve (AUC) for the plasma concentration-time trace from zero to the last plasma drug concentration (AUC0–t) was calculated using the trapezoidal rule. […]

[3] = Biliary cumulative excretion of unchanged DHC after a single oral dose; format: in vivo, Sprague-Dawley rats; details: rat, single oral dose 97.5 mg/kg
Description: (§1) The cumulative excretion of DHC in bile and urine after a single i.g. dose of DHC (97.5 mg/kg) was determined. […] However, the urinary cumulative excretion of DHC was little. The mean accumulated amount of DHC in urine over 96 h was 0.17% ± 0.13% of dose. […] There might be a huge “first pass” effect in liver after oral administration and account for the trace plasma concentration.
For biliary excretion study, four rats were light anesthetized by ether and a PE-10 cannula was implanted into the bile duct to collect bile. A single dose of DHC was administered as described above. Bile samples were collected at 0–2, 2−4, 4−6, 6−8, 8−10, 10−24 and 24−48 h post-dosing and kept at −20 °C after the volume of each collection was recorded.
(§2) A 200 μL aliquot of plasma was vortex mixed for 3 min with 200 μL of water and 50 μL of IS (800 ng/mL). After centrifugation at 9000 rpm for 10 min, all the supernatant was loaded onto an Oasis HLB cartridge (Waters, Milford, MA, USA), which was pre-conditioned with 1 mL of methanol followed by 1 mL of deionized water. The loaded-cartridge was sequentially washed with 1 mL of water and 1 mL of 20% methanol. […]
(§3) An Agilent 1100 system (Palo Alto, CA, USA) equipped with a vacuum degasser, a quaternary pump, and an auto-sampler were used. […] [26, 27, 28] were monitored for DHC and IS, respectively. […]

[4] = Urinary cumulative excretion of DHC after a single oral dose; format: in vivo, Sprague-Dawley rats; details: rat, single oral dose 97.5 mg/kg, over 96 h
Description: as §1
For urinary excretion study, four rats were used. DHC was administered as described above. The animals were housed in stainless steel metabolic cages with free access to tap water. Urine was collected at 0–4, 4–8, 8–12, 12–24, 24–36, 36–60, 60–84 and 84–96 h post-dosing and kept at −20 °C after the volume of each collection was recorded.
as §2, with “methanol. The analytes were then eluted with 1 mL of methanol in water containing 2% formic acid.” for “methanol.”
as §3

[5] = Stability of DHC in rat plasma (QC samples); format: in vitro ADME; details: for Cdec (mean ± S.D.): n = 6
Description: This is evidenced by the fact that the responses varied no more than ±10% over 24 h at the QC concentrations. After storage at ambient temperature for 12 h, the concentration of DHC in the plasma deviated less than ±13% from those in freshly-spiked plasma (Table 3).
The stability of DHC in rat plasma was evaluated under conditions that mimicked those likely to be encountered during sample storage and analytical processing. Six replicates of QC samples were analyzed for DHC. The QC samples were frozen and stored at −20 °C for a week. The concentration variation of the DHC in the prepared QC samples was detected after (i) three cycles of freezing and thawing, (ii) placement in an auto-sampler at 4 °C for 24 h, and (iii) storing at ambient temperature for 12 h.

[6] = after three freeze-thaw cycles, Cnom 1.25 ng/mL
[7] = after three freeze-thaw cycles, Cnom 25 ng/mL
[8] = after three freeze-thaw cycles, Cnom 250 ng/mL
[9] = postpreparative stability (24 h, auto-sampler 4 °C), Cnom 1.25 ng/mL
[10] = postpreparative stability (24 h, auto-sampler 4 °C), Cnom 25 ng/mL
[11] = postpreparative stability (24 h, auto-sampler 4 °C), Cnom 250 ng/mL
[12] = short-term temperature stability (12 h, ambient), Cnom 1.25 ng/mL
[13] = short-term temperature stability (12 h, ambient), Cnom 25 ng/mL
[14] = short-term temperature stability (12 h, ambient), Cnom 250 ng/mL

Compound: COc1ccc2cc3[n+](cc2c1OC)CCc1cc2c(cc1-3)OCO2 [berberine]
- absorbed amount [1]: 33.6 % of the given dose
- P-glycoprotein substrate (P-glycoprotein): substrate of P-glycoprotein
- cytochrome P450 3A4 inhibition (cytochrome P450 3A4): weak cytochrome P450 3A4 inhibitor

- AUC(0-inf) [2]: 59.1 ± 11.5 ng·h/mL
- AUC(0-t) [2]: 52.4 ± 12.8 ng·h/mL
- Cmax [2]: 9.4 ± 4.18 ng/mL
- Tmax [2]: 1 h
- half-life [2]: 7.93 ± 1.34 h
- k el ([2]; read-out: Ke (converted)): 2.5e-05 s⁻¹
- mean accumulated amount of DHC in bile ([3]; in 2 h): 12.2% ± 7.38%
- total biliary excretion of unchanged DHC ([3]; up to 48 h): 60.04% ± 24.66%
- mean accumulated amount of DHC in urine [4]: 0.17% ± 0.13%
- variation in the concentration from nominal concentration ([5]; after three cycles of freezing and thawing, rat plasma): ≤ 15%
- Relative Error [5, 6]: −0.27%
- Cdec (mean ± S.D.) [5, 6]: 1.25 ± 0.1 ng/mL
- Relative Error [5, 7]: 10%
- Cdec (mean ± S.D.) [5, 7]: 27.5 ± 0.87 ng/mL
- Relative Error [5, 8]: 9.07%
- Cdec (mean ± S.D.) [5, 8]: 272.67 ± 8.14 ng/mL
- Relative Error [5, 9]: −5.47%
- Cdec (mean ± S.D.) [5, 9]: 1.18 ± 0.06 ng/mL
- Relative Error [5, 10]: 4.8%
- Cdec (mean ± S.D.) [5, 10]: 26.2 ± 0.86 ng/mL
- Relative Error [5, 11]: 8.14%
- Cdec (mean ± S.D.) [5, 11]: 270.33 ± 9.42 ng/mL
- variation of responses ([5]; processed samples in auto-sampler at 4 °C over 24 h, QC concentrations): ≤ 10%
- Relative Error [5, 12]: −3.87%
- Cdec (mean ± S.D.) [5, 12]: 1.2 ± 0.1 ng/mL
- Relative Error [5, 13]: −12.13%
- Cdec (mean ± S.D.) [5, 13]: 21.97 ± 0.51 ng/mL
- Relative Error [5, 14]: −7.73%
- Cdec (mean ± S.D.) [5, 14]: 230.67 ± 15.96 ng/mL
- deviation of concentration from freshly-spiked plasma ([5]; storage at ambient temperature for 12 h, rat plasma): < 13%
Compound: COc1cc2c(cc1OC)-c1c(C)c3ccc(OC)c(OC)c3c[n+]1CC2 [DHC, dehydrocorydaline]
